Laboratory results as given in patent EP4563149A1, “LURBINECTEDIN, ECUBECTEDIN AND A RELATED COMPOUND FOR USE IN THE TREATMENT OF SKIN CANCERS” (Pharma Mar, S.A., priority 2023, dated 2025).
Read-outs that look alike come from different tables or passages of the source.

Experiments:
[1] = tested on: all melanoma cells; test: Cell viability assay (PrestoBlue), summary over all melanoma cells; format: cell-based; conditions: Homo sapiens, read-out: IC50 values
[2] = tested on: melanoma cell cultures or cell lines; test: Clonogenic assay; format: cell-based, human; conditions: 48h at IC50 concentrations, then 10 days without drug
Experimental: Based on the cell viability assays conducted above, the efficacy of lurbinectedin, PM14 or Compound IA on melanoma cell proliferation was investigated. Initially, a clonogenic assay was performed. Cells were drug-treated at IC50 concentrations during 48h before seeding 1×10^3 or 2×10^3 cells in 6-well plates without drug, wherein they grew for 10 days to allow for colony formation. Afterwards, cells were fixed for 10min with 4% formaldehyde solution, washed once with PBS and stained with Crystal Violet solution 0.2% for 15 min. The wells were finally washed twice with deionized water, air dried, scanned and analyzed with Fiji software to count the number of colonies.

[3] = tested on: melanoma cells; test: Cell proliferation by CellTrace Violet flow cytometry; format: cell-based, human; conditions: IC50 concentrations, compared to DMSO
Experimental: After 48h of incubation, cells were rinsed and incubated with AnnexinV-APC (BD Biosciences). Cell proliferation and apoptosis were detected on a BD LSRFortessaTM Flow Cytometer. Data were analyzed with FlowJo software. To define slow proliferating or apoptotic cells: it was considered that slow proliferating cells represented the 30% of cells with the highest concentration of CellTrace Violet signal in the DMSO control. […] For apoptotic cells, it was considered the 20% of cells with the highest signal of AnnexinV-APC in the DMSO control.

[4] = tested on: RPB1 (RNA pol II elongation subunit); test: Immunoblotting of RPB1 in 501mel; format: cell-based, human; conditions: 24h at 5×IC50
Experimental: Cells were washed once with cold PBS, rinsed with a cell scraper, pelleted and resuspended in LSDB 0.5M buffer (0.5M KCI, 50mM Tris HCl pH 7.9, 20% Glycerol, 1% NP40, 1mM DTT, PIC). Afterwards cells were fully disrupted with 3 cycles of heat shock in liquid nitrogen and 37°C water bath and centrifugated 15min at 14,000rpm to pellet cell debris. Ten micrograms of extract were loaded on SDS-PAGE before transfer to nitro-cellulose membranes and immunoblotting.

[5] = tested on: MM074 melanospheres; test: Melanosphere apoptosis (AnnexinV-APC / propidium iodide); format: cell-based, human; conditions: 72h
Experimental: MM074 proliferative/differentiated cell line were seeded (5×10^4 cells) in ultra-low attachment hydrogel-layered 96 well plates in KO DMEM medium supplemented with 20% KSR, AANE, 2 mM Glutamax, Penicillin/Streptomycin and 100 uM Beta-mercaptoethanol. To allow for melanosphere formation, cells were left to grow for 4 days before drug treatment.
For apoptosis assays with 3D-grown melanoma cells, TrypLe Select 10x reagent (Gibco) was used to dissociate melanospheres to obtain single-cell suspensions. These cells were incubated with AnnexinV-APC (Biolegend) and Propidium Iodide (PI, Biolegend). With bivariant dot plots, it was distinguished between viable (AnnexinV-/PI-), early apoptotic (AnnexinV+/PI-), late apoptotic (AnnexinV+/PI+) and necrotic cells (AnnexinV-/PI+).

[6] = tested on: 501mel, 501mel^VemuR and SKMEL28-derived xenografts; conditions: 24h after single IV dose of 1.2 mg/kg
Excerpt: To investigate the effects of the aforementioned tested drugs in living organisms, it was decided to examine the impact of PM14 and Compound IA on melanoma cell-derived xenograft (CDXs) mouse models. Human 501mel, 501mel^VemuR or SKMEL28 melanoma cells were subcutaneously implanted into the right flank of NSG mice.

[7] = tested on: 501 mel^Vemur cell line; conditions: 1.2 mg/kg intravenous
Experimental: (§1) Female athymic nu/nu mice (Harlan Laboratories Models, S.L. Barcelona, Spain or Envigo, Spain) were utilized for all experiments. Animal were housed in individually ventilated cages Sealsafe® Plus, Techmplast S.P.A.), up to ten per cage on a 12-hour light-dark cycle at 21-23 °C and 40-60 % humidity. Mice were allowed free access to irradiated standard rodent diet (Tecklad 2914C) and sterilized water. Animals were acclimated for at least 5 days prior to tumor implantation with a tumor cell suspension.
(§2) The cell line used are: • 501mel • IGR-37 • SK-Mel-28 • WM-266-4 • LOX-IMVI • 501mel^Vemur
(§3) In xenograft studies with cell lines: • Tumour volume was calculated using the equation […], where a: length (longest diameter) and b: width (shortest diameter) were measured in mm by using digital caliper (Fowler Sylvac, S235PAT). Tumour dimensions and body weights were recorded 2-3 times per week starting from the first day of treatment. • When tumors reached ca. 150-250 mm^3, tumour bearing animals (N = 8-10/group) were randomly allocated into the treatment groups, based on body weight and tumour measurements by using NewLab Oncology Software (version 2.25.06.00). • Comparison between median tumour volume of treated and placebo groups was used for evaluation of the antitumoural efficacy. • Animals were euthanized when their tumours reached ca. 1,500 mm^3 and/or severe necrosis was seen.
(§4) Treatments producing >20 % lethality and/or 20% net body weight loss were considered toxic.
(§5) In these experiments, PM14 and Compound IA, as well as placebo, were intravenously administered once per week for 3 consecutive weeks, on days 0, 7 and 14, whenever it was possible.

[8] = tested on: IGR-37 melanoma xenografts; conditions: 1.2 mg/kg intravenous
Experimental: as §1, §2, §3, §4, §5
Table 5. Tumour volume evaluation in IGR-37 melanoma xenografts with PM14 and Compound IA and placebo.

[9] = tested on: xenografts with various melanoma cell lines; conditions: different xenografts, 1.2 mg/kg intravenous once per week for 3 weeks
Experimental: as §1, §2
as §3, with “seen. […]” for “seen.”

[10] = tested on: MM117; test: Cell viability assay (PrestoBlue), 72h; conditions: Homo sapiens
Experimental: Cells were grown at 37°C in 5% CO2 (10% for Hermes 3A) and were regularly checked for mycoplasma contamination. […] Melanoma cell lines 501mel and SKmel28 were grown in RPMI w/o HEPES (Gibco, Invitrogen) supplemented with 10% FCS and gentamycin. Vemurafenib-resistant cells (501melVemuR and MM074VemuR) were additionally supplemented with 1.5 µM of vemurafenib. Melanoma IGR cell lines (IGR37 and IGR39) were grown in RPMI w/o HEPES (Gibco, Invitrogen) supplemented with 15% FCS and gentamycin.
(§6) To determine the IC50 (half maximal inhibitory concentration) of these cells to various inhibitors, cell viability assays were performed.
(§7) After 72h of treatment with different concentrations of the compounds, cells were treated with PrestoBlue reagent according to the manufacturer's instructions. The absorbance per well was measured with a Cellinsight CX5 microplate reader. Data were analyzed using Prism9 statistical software.

[11] = tested on: MM029; test: Cell viability assay (PrestoBlue), 72h; conditions: Homo sapiens
Experimental: (§8) Cells were grown at 37°C in 5% CO2 (10% for Hermes 3A) and were regularly checked for mycoplasma contamination. […] Melanoma IGR cell lines (IGR37 and IGR39) were grown in RPMI w/o HEPES (Gibco, Invitrogen) supplemented with 15% FCS and gentamycin.
as §6, §7

[12] = tested on: MM047; test: Cell viability assay (PrestoBlue), 72h; conditions: Homo sapiens
Experimental: as §8, §6, §7

[13] = tested on: MM099; test: Cell viability assay (PrestoBlue), 72h; conditions: Homo sapiens
Experimental: as §8, §6, §7

Row | SMILES | IC50 [1] [nM] | colony formation (number of colonies) [2] | melanoma cell proliferation [3] | RPB1 (RNA pol II elongation subunit) degradation [4] | late apoptotic cells positive for Annexin V and propidium iodide [5] | fraction of apoptotic cells (cleaved caspase-3) [6] | Median Tumour Volume ([7]; days 0, 7 and 14, day 0) [mm^3] | Median Tumour Volume ([7]; days 0, 7 and 14, day 2) [mm^3] | Median Tumour Volume ([7]; days 0, 7 and 14, day 4) [mm^3] | Median Tumour Volume ([7]; days 0, 7 and 14, day 7) [mm^3] | Median Tumour Volume ([7]; days 0, 7 and 14, day 9) [mm^3] | Median Tumour Volume ([7]; days 0, 7 and 14, day 11) [mm^3] | Median Tumour Volume ([7]; days 0, 7 and 14, day 14) [mm^3] | Median Tumour Volume ([7]; days 0, 7 and 14, day 16) [mm^3] | Median Tumour Volume ([7]; days 0, 7 and 14, day 18) [mm^3] | Median Tumour Volume ([7]; days 0, 7 and 14, day 21) [mm^3] | Median Tumour Volume ([7]; days 0, 7 and 14, day 23) [mm^3] | Median Tumour Volume ([7]; days 0, 7 and 14, day 25) [mm^3] | Median Tumour Volume ([7]; days 0, 7 and 14, day 28) [mm^3] | Median Tumour Volume ([7]; days 0, 7 and 14, day 30) [mm^3] | further results
1 | COc1c(C)cc2c(c1O)[C@@H]1[C@@H]3[C@@H]4SC[C@]5(N[C@H](CO)Cc6c5[nH]c5ccccc65)C(=O)OC[C@@H](c5c6c(c(C)c(OC(C)=O)c54)OCO6)N3[C@@H](O)[C@H](C2)N1C [PM14, ecubectedin] | 0.3 to 4.73 | significant impact | significant inhibition | pronounced | substantial population of late apoptotic cells | significant increase | 147.9 | 225.2 | 248.4 | 330.4 | 361 | 389.7 | 407.1 | 436.4 | 502 | 555.5 | 674.2 | 757.7 | 839.8 | 882.9 | Median Tumour Volume ([7]; days 0, 7 and 14, day 35): 863.3 mm^3; Median Tumour Volume ([7]; days 0, 7 and 14, day 37): 871.8 mm^3; Median Tumour Volume ([7]; days 0, 7 and 14, day 39): 948.6 mm^3; Median Tumour Volume ([7]; days 0, 7 and 14, day 42): 1020 mm^3; Median Tumour Volume ([7]; days 0, 7 and 14, day 44): 1,295.1 mm^3; Median Tumour Volume ([7]; days 0, 7 and 14, day 46): 1,582.2 mm^3; Median Tumour Volume ([8]; days 0, 7 and 14, day 0): 150.4 mm^3; Median Tumour Volume ([8]; days 0, 7 and 14, day 2): 216.6 mm^3; Median Tumour Volume ([8]; days 0, 7 and 14, day 4): 326.3 mm^3; Median Tumour Volume ([8]; days 0, 7 and 14, day 7): 544.5 mm^3; Median Tumour Volume ([8]; days 0, 7 and 14, day 9): 704.9 mm^3; Median Tumour Volume ([8]; days 0, 7 and 14, day 11): 821.6 mm^3; Median Tumour Volume ([8]; days 0, 7 and 14, day 14): 1,127.4 mm^3; Median Tumour Volume ([8]; days 0, 7 and 14, day 16): 1,351.7 mm^3; Median Tumour Volume ([8]; days 0, 7 and 14, day 18): 1,594 mm^3; tumor volume compared to the placebo [9]: reduction of the volume tumor; IC50 [10]: 0.72 nM; IC50 [11]: 1.4 nM; IC50 [12]: 0.96 nM; IC50 [13]: 1.41 nM
2 | COc1c(C)cc2c(c1O)[C@@H]1[C@@H]3[C@@H]4SC[C@]5(N[C@H](CO)Cc6c5oc5ccccc65)C(=O)OC[C@@H](c5c6c(c(C)c(OC(C)=O)c54)OCO6)N3[C@@H](O)[C@H](C2)N1C [Compound IA] | 0.3 to 4.73 | significant impact | significant inhibition | pronounced | substantial population of late apoptotic cells | significant increase | 160.3 | 249 | 306.8 | 378.8 | 417.2 | 453.7 | 490.8 | 517.4 | 572.1 | 666.9 | 703.5 | 739.3 | 861.2 | 986.4 | Median Tumour Volume ([7]; days 0, 7 and 14, day 35): 997.4 mm^3; Median Tumour Volume ([7]; days 0, 7 and 14, day 42): 900.1 mm^3; Median Tumour Volume ([7]; days 0, 7 and 14, day 44): 982.3 mm^3; Median Tumour Volume ([7]; days 0, 7 and 14, day 46): 1080 mm^3; Median Tumour Volume ([7]; days 0, 7 and 14, day 49): 1,169.4 mm^3; Median Tumour Volume ([7]; days 0, 7 and 14, day 53): 1,262.1 mm^3; Median Tumour Volume ([7]; days 0, 7 and 14, day 56): 1,521.8 mm^3; Median Tumour Volume ([8]; days 0, 7 and 14, day 0): 150 mm^3; Median Tumour Volume ([8]; days 0, 7 and 14, day 2): 236.5 mm^3; Median Tumour Volume ([8]; days 0, 7 and 14, day 4): 377.5 mm^3; Median Tumour Volume ([8]; days 0, 7 and 14, day 7): 608 mm^3; Median Tumour Volume ([8]; days 0, 7 and 14, day 9): 886.9 mm^3; Median Tumour Volume ([8]; days 0, 7 and 14, day 14): 1,163.9 mm^3; Median Tumour Volume ([8]; days 0, 7 and 14, day 16): 936.5 mm^3; Median Tumour Volume ([8]; days 0, 7 and 14, day 18): 1,027.6 mm^3; tumor volume compared to the placebo [9]: reduction of the volume tumor; IC50 [10]: 1.16 nM; IC50 [11]: 4.73 nM; IC50 [12]: 1.38 nM; IC50 [13]: 1.85 nM
